Results taken from patent publication US20050180954A1, “Drug for treating bone disorders” (priority 1995, published 2005).

Experiments:
[1] = system: osteoclast like cells from bone marrow cells of mice of C 57 BL/6 strain; experiment: Formation of osteoclast like cells from bone marrow cells of mice of C 57 BL/6 strain; format: cell-based, mouse; settings: Example 2, C 57 BL/6 strain bone marrow cells
Description: The number of viable bone marrow cells was counted using tripam blue dye exclusion test and the bone marrow cells were diluted with α-MEM containing 10% JCS, 10^−8M Vit D3, 10^−7 M dexamethasone to a population density of 1.5×10^6 cells/ml, followed by placing the resulting suspension in each well in 24-well plates in an amount of 0.45 ml/well. To each well, 50 μl of the medium containing varying concentration of IFN was added to make the volume to 0.5 ml/well and culturing was begun. At every three days, 0.4 ml of the culture medium was removed from each well and 0.4 ml of fresh medium (the above-mentioned medium containing the respective concentration of IFN) was added. On Day 8 from the beginning of the culturing, the medium was removed and the cells were fixed with mixed solution of ethyl alcohol and diethyl ether (1:1) and the cells were stained with tartrate resistant acid phosphatase (TRAP), followed by counting TRAP positive multinuclear cells with a phase contrast microscope. […] The inhibition effect of IFNγ was stronger than that of IFNβ. That is, the inhibition concentration IC50 of IFNγ was not more than 0.1 units/ml, and that of IFNβ was 0.2 units/ml.
In place of mice of ddy strain, male mice of C 57 BL/6 of 7 weeks old were used. The mice were exanguinated to death under ether anesthesia and the femur and the tibia of hind legs were collected from each mouse. The connective tissues on the surfaces of the bones were carefully removed, and both ends of each bone were cut off with scissors. The bone marrow cells were suspended in α-MEM containing 10% JCS and the suspension was flushed out through a 25 G needle attached to a syringe to collect the suspension in a centrifugal tube. The collected suspension was washed by centrifugation in the same medium at 2000 rpm at 4° C. for 5 minutes. The precipitated cells were dispersed in the above-mentioned medium and the washing by centrifugation was repeated twice. Formation of osteoclast like cells was measured by the same method as in Example 1.

MC3T3-E1 cells = experiment: Mineralization of murine osteoblasts, Von Kossa stain (in vitro single administration); format: cell-based, mouse; settings: Day 14
Description: As the parameters for evaluation of differentiation ability, alkaline phosphatase (ALPase) and mineralization were employed. Detection of alkaline phosphatase which is a marker of differentiation of osteoblasts was carried out on Day 8 from the beginning of the culturing by staining method. Evaluation of mineralization was carried out as follows. That is, MC3T3-E1 cells were placed in each well of 24-well plates in an amount of 50,000 cells/ml (10 times in the case of anti-cell test in Example 3). On Day 4, after confirming that the cells sufficiently reached confluency, the medium was discarded and fresh α-MEM containing 10% JCS, 50 μg/ml of L-ascorbic acid and 10 mM β-glycerophosphate was added in an amount of 0.9 ml/well, followed by adding medium containing varying concentration of IFN. Four days later, the medium was replaced with IFN-free medium, and the medium was replaced with IFN-free medium every 4 days. On Day 14, Von Kossa stain was performed to visualize the calcified foci. Expression of alkaline phosphatase activity which is a differentiation marker is an indispensable step to the subsequent mineralization.

IC50 of formation inhibition of osteoclast like cells ([1]; Day 8): 0.1 units/ml
Substance: MuIFNβ: murine interferon β, Lot M-0034, prepared by Toray Industries, Inc. by genetic engineering technique
inhibition of formation of osteoclast like cells [1]: strongly inhibited formation of osteoclast like cells
influence on mineralization (calcified foci, Von Kossa stain) (MC3T3-E1 cells): mineralization proceeded without substantial influence
